Assay [1] is described as follows: Induction of degradation of ePL tagged CK1alpha in human MDS-L cells incubated for 4 hrs by luminescence based analysis. It is filed as cell-based.
Assay [2] addresses T1, Protein cereblon/DNA damage-binding protein 1 (Homo sapiens) (UniProt Q96SW2+Q16531). The note with it: Sf9.
In a further assay the test system is MDS-L. In words: Induction of degradation of ePL tagged CK1alpha in human MDS-L cells by measuring minimum efficacy incubated for 4 hrs by luminescence based analysis relative to control. The format is cell-based.
Assay [3] deals with Zinc finger protein Aiolos (Homo sapiens, UniProt Q9UKT9). Nature of the assay: Induction of degradation of ePL tagged AIOLOS in human DF15 cells incubated for 4 hrs by luminescence based analysis. The format is cell-based.
The target of assay [4] is T1, Protein cereblon/DNA damage-binding protein 1 (Homo sapiens). Conditions: Sf9. This is another data set of the same source.
Assay [5] deals with Protein cereblon/DNA damage-binding protein 1 (Homo sapiens, UniProt Q96SW2). In words: Binding affinity to 6-his tagged CRBN (1 to 442 residues)/ DDB1 (1 to 1140 residues) (unknown origin) incubated for 20 mins by time-resolved fluorescence probe displacement assay. It is filed as protein assay.
The nature of assay [6]: Induction of degradation of ePL tagged GSPT1 in human DF15 cells incubated for 20 hrs by luminescence based analysis. The format is cell-based. The note with it: DF15, 20 h.
Another assay concerns DF15. Nature of the assay: Induction of degradation of ePL tagged GSPT1 in human DF15 cells by measuring minimum efficacy incubated for 20 hrs by luminescence based analysis. The format is cell-based.
Assay [7] has as its target T1, Protein cereblon/DNA damage-binding protein 1 (Homo sapiens). Nature of the assay: Induction of thermal stabilization of ZZ domain 6-His thrombin tagged human CRBN (1 to 442 residues)/[…] human DDB1 (396 to 706 residues) expressed in baculovirus infected Sf9 cells assessed as change in thermal shift incubated for 1 hr by […] analysis.

The values that follow come from ChEMBL document CHEMBL6121024, “Development of a Buchwald-Hartwig Amination for an Accelerated Library Synthesis of Cereblon Binders” (ACS Med Chem Lett, 2025).

In the case of `CC(C)(C)OC(=O)N1CCC(CNc2ccc(C3CCC(=O)NC3=O)cc2)CC1` (stereo not given), the EC50 in [1], in assay [3] and in assay [6] was more than 10 µM in each case. In addition, the Tm in [2] was 63.8 °C. Moreover, the Emin in the assay on MDS-L is 85%; with DF15 it was 91%. For the same compound, the ΔTm in [4] is 3.4 °C. For the same compound, the IC50 in assay [5] is 1.74 µM.
`CN(C(=O)OC(C)(C)C)C1CCN(c2cc3c(cc2F)c(C2CCC(=O)NC2=O)nn3C)CC1` (stereo not given): the EC50 in assay [1] is more than 10 µM; in assay [3] it was more than 10 µM; in assay [6], 1.69 µM. Further, the Tm in assay [2] came out at 65.4 °C. The Emin worked out at 74% with MDS-L and 44% with DF15. Besides, in assay [4], the ΔTm was 5 °C. In assay [5], this compound registered an IC50 of 0.19 µM.
Turning to `Cn1nc(C2CCC(=O)NC2=O)c2ccc(NC3CCNCC3)cc21` (stereo not given), the ΔTm in assay [7] came to 6 °C. The compound further came in with a half-inhibitory concentration (IC50) in assay [5] of 0.03 µM.
For `CN(C(=O)OC(C)(C)C)C1CCN(c2cccc(C3CCC(=O)NC3=O)c2)CC1` (stereo not given), the concentration for a half-maximal effect (EC50) in assay [1], in [3] and in assay [6] was more than 10 µM in each case. The Tm in [2] was determined as 62.3 °C. Further, the Emin in the assay on MDS-L and in the assay on DF15 was 90% throughout. In addition, the ΔTm in assay [4] was 1.8 °C. The same compound returned an IC50 in [5] of 12 µM.
Regarding `Cn1nc(C2CCC(=O)NC2=O)c2ccc(N3CCC4(CCN(C(=O)OC(C)(C)C)C4)C3)cc21` (stereo not given), the EC50 in assay [1], in assay [3] and in assay [6] was more than 10 µM each time. Moreover, the Tm in assay [2] was found to be 66.7 °C. The figures for the Emin in the assay with MDS-L and in the assay with DF15 were 98% and 90%, respectively. In addition, the ΔTm in [4] amounted to 6.3 °C. In addition, the IC50 in assay [5] was 0.09 µM.
In the case of `CN(C(=O)OC(C)(C)C)C1CCN(c2ccc3c(cnn3C3CCC(=O)NC3=O)c2)CC1` (stereo not given), the EC50 was more than 10 µM in [1], more than 10 µM in assay [3] and 4.01 µM in assay [6]. Also, the Tm in [2] amounted to 64.3 °C. Also, the Emin worked out at 95% in the assay on MDS-L and 72% in the assay with DF15. The ΔTm in assay [4] was 3.8 °C. This compound also yielded a concentration for half-maximal inhibition (IC50) in assay [5] of 1.49 µM.
Turning to `Cn1nc(C2CCC(=O)NC2=O)c2ccc(N3CCN(C(=O)OC(C)(C)C)CC3)cc21` (stereo not given), the EC50 in assay [1], in assay [3] and in [6] was more than 10 µM throughout. Also, the Tm in [2] was found to be 66 °C. Also, the Emin with MDS-L was determined as 97%; with DF15, 94%. Moreover, the ΔTm in assay [4] is 5.6 °C. Moreover, the half-inhibitory concentration (IC50) in assay [5] was determined as 0.07 µM.
For the compound `CC(C)(C)OC(=O)N1CCC(CNc2ccc3c(cnn3C3CCC(=O)NC3=O)c2)CC1` (stereo not given), the EC50 in [1], in [3] and in assay [6] was more than 10 µM throughout. The Tm in assay [2] was found to be 66.1 °C. In addition, the Emin was 91% in the assay on MDS-L and 81% in the assay with DF15. In addition, in assay [4], the thermal shift (ΔTm) worked out at 5.6 °C. This compound also came in with an IC50 in [5] of 0.44 µM.
In the case of `COc1cc2c(C3CCC(=O)NC3=O)nn(C)c2cc1N1CCC(N(C)C(=O)OC(C)(C)C)CC1` (stereo not given), the EC50 in assay [1], in assay [3] and in assay [6] was more than 10 µM each time. In addition, the Tm in [2] worked out at 62.1 °C. Further, the Emin was determined as 88% with MDS-L and 90% in the assay on DF15. The ΔTm in [4] came out at 1.6 °C. Besides, the IC50 in assay [5] turned out to be 28.7 µM.
As to `Cn1nc(C2CCC(=O)NC2=O)c2ccc(N3CCOCC3)cc21` (stereo not given), the EC50 in assay [1], in assay [3] and in assay [6] was more than 10 µM throughout. Further, in [2], the Tm was found to be 66.2 °C. The Emin with MDS-L came out at 100%; in the assay on DF15, 93%. For the same compound, the ΔTm in assay [4] came out at 5.7 °C. In assay [5], this compound gave an IC50 of 0.07 µM.
Take `Cn1nc(C2CCC(=O)NC2=O)c2ccc(N[C@H]3CCN(C(=O)OC(C)(C)C)C3)cc21` (stereo not given in full): the concentration for a half-maximal effect (EC50) in assay [1], in assay [3] and in assay [6] was more than 10 µM throughout. Also, the Tm in assay [2] amounted to 66.8 °C. The Emin with MDS-L came to 96%; in the assay with DF15, 90%. Besides, the ΔTm in assay [4] was determined as 6.4 °C. In addition, the IC50 in [5] is 0.05 µM.
Consider `Cn1nc(C2CCC(=O)NC2=O)c2ccc(NC3CC4(C3)CN(C(=O)OC(C)(C)C)C4)cc21` (stereo not given), for which the EC50 in [1], in assay [3] and in assay [6] was more than 10 µM throughout. In addition, in [2], the Tm was 66.9 °C. Further, the Emin was determined as 82% with MDS-L and 84% in the assay with DF15. Moreover, the ΔTm in assay [4] is 6.4 °C. This compound returned an IC50 in assay [5] of 0.02 µM.
Consider `Cn1nc(C2CCC(=O)NC2=O)c2ccc(N3CCC4(CC3)OCCO4)cc21` (stereo not given), for which the EC50 in [1], in [3] and in [6] was more than 10 µM in each case. Moreover, in [2], the Tm came to 66.5 °C. For the same compound, the results for the Emin in the assay with MDS-L and with DF15 were 91% and 100%, respectively. In assay [4], the ΔTm amounted to 6 °C. Also, in assay [5], the IC50 was determined as 0.05 µM.
Consider `Cn1nc(C2CCC(=O)NC2=O)c2ccc(N3CCCC(F)(F)C3)cc21` (stereo not given), for which the EC50 in [1], in assay [3] and in assay [6] was more than 10 µM in each case. Besides, in [2], the Tm was found to be 65.9 °C. Also, the Emin with MDS-L came out at 91%; with DF15, 100%. For the same compound, the ΔTm in assay [4] came to 5.4 °C. In [5], this compound came in with an IC50 of 0.11 µM.
As to `Cn1nc(C2CCC(=O)NC2=O)c2cc(NCC3CCN(C(=O)OC(C)(C)C)CC3)ccc21` (stereo not given), the EC50 in assay [1], in assay [3] and in assay [6] was more than 10 µM throughout. Further, the Tm in assay [2] came out at 62.8 °C. The figures for the Emin in the assay with MDS-L and in the assay with DF15 were 94% and 91%, respectively. Further, the ΔTm in [4] turned out to be 2.4 °C. Further, the IC50 in assay [5] stood at 0.29 µM.
Regarding `Cn1nc(C2CCC(=O)NC2=O)c2ccc(NCC3CCN(C(=O)OC(C)(C)C)CC3)cc21` (stereo not given), the EC50 in [1] was more than 10 µM; in assay [3], more than 10 µM; in assay [6], 0.28 µM. Also, the Tm in assay [2] is 67.3 °C. Besides, the values for the Emin with MDS-L and in the assay with DF15 were 93% and 91%, respectively. The ΔTm in [4] is 6.8 °C. The same compound registered an IC50 in [5] of 0.1 µM.
In the case of `Cn1nc(C2CCC(=O)NC2=O)c2ccc(NCc3ccccc3)cc21` (stereo not given), the 50% effective concentration (EC50) in [1], in [3] and in assay [6] was more than 10 µM in each case. Also, the Tm in assay [2] came to 65.9 °C. Further, the figures for the Emin with MDS-L and in the assay on DF15 were 90% and 91%, respectively. Besides, the shift in melting temperature (ΔTm) in assay [4] stood at 5.5 °C. Also, in assay [5], the IC50 came to 0.06 µM.
In the case of `CC(C)(C)OC(=O)N1CCC(CNc2cccc(C3CCC(=O)NC3=O)c2)CC1` (stereo not given), the EC50 in assay [1], in assay [3] and in assay [6] was more than 10 µM in each case. Further, the Tm in [2] was 63.6 °C. Further, the Emin is 97% in the assay with MDS-L and 84% with DF15. For the same compound, the ΔTm in assay [4] is 3.1 °C. The same compound yielded an IC50 in assay [5] of 1.9 µM.
`Cn1nc(C2CCC(=O)NC2=O)c2ccc(NC3CCCCC3)cc21` (stereo not given): the EC50 in [1], in assay [3] and in assay [6] was more than 10 µM throughout. Besides, the Tm in assay [2] was 66.3 °C. The Emin is 94% with MDS-L and 97% in the assay on DF15. In addition, the ΔTm in assay [4] stood at 6 °C. The IC50 in [5] came to 1.02 µM.
Take `CN(C(=O)OC(C)(C)C)C1CCN(c2ccc3c(c2)c(C2CCC(=O)NC2=O)nn3C)CC1` (stereo not given): the EC50 in assay [1], in assay [3] and in assay [6] was more than 10 µM in each case. Besides, the Tm in [2] came out at 62.5 °C. Also, the Emin amounted to 98% with MDS-L and 99% with DF15. Also, the shift in melting temperature (ΔTm) in assay [4] was determined as 2.1 °C. In addition, the IC50 in assay [5] worked out at 0.68 µM.
Consider `Cn1nc(C2(C)CCC(=O)NC2=O)c2ccc(NCC3CCN(C(=O)OC(C)(C)C)CC3)cc21` (stereo not given), for which the EC50 in [1], in [3] and in [6] was more than 10 µM throughout. Also, the Tm in [2] amounted to 65.2 °C. Further, the Emin with MDS-L is 90%; in the assay on DF15, 96%. In addition, the ΔTm in assay [4] stood at 4.7 °C. The compound further registered an IC50 in [5] of 0.83 µM.
In the case of `CC(C)(C)OC(=O)N1CCC(CNc2ccc3c(ccn3C3CCC(=O)NC3=O)n2)CC1` (stereo not given), the EC50 in assay [1], in assay [3] and in assay [6] was more than 10 µM in each case. In addition, the Tm in assay [2] worked out at 64.5 °C. Moreover, the Emin is 100% in the assay with MDS-L and 99% in the assay with DF15. The ΔTm in assay [4] turned out to be 4 °C. The compound further came in with an IC50 in assay [5] of 0.59 µM.

What is called EC50 is the concentration that produces a half-maximal response. Low values mean greater potency, high ones weaker potency. As usually defined, the ΔTm is the shift of the melting midpoint relative to a reference. For orientation: IC50 means the concentration that inhibits the measured activity by half. A low value points to greater potency in that assay.
